Experimental data reported in patent US20070207975A1, “Materials and methods for treating and preventing Her-2/neu overexpressing, FAS-elevated cancer cells” (EVANSTON NORTHWESTERN HEALTHCARE, priority 2006, published 2007).

Columns and labels:
[1] = test system: BT-474 cells; experiment: MTT cell viability / isobologram analysis, BT-474; assay type: cell-based, human
Procedure: (§1) FIG. 10. […] Cells in exponential growth were harvested, seeded at a concentration of ˜5×10^3 cells/200 μl/well into 96-well plates and allowed to attach overnight. […] Agents were studied in combination concurrently, and they were not renewed during the entire period of cell exposure. After treatment, the medium was removed and replaced by fresh drug-free medium (100 μl/well), and MTT (5 mg/ml in phosphate-buffered saline [PBS]) was added to each well at a 1/10 volume. After 2-3 hours at 37° C., the supernatants were removed, 100 μl of dimethylsulfoxide was added to each well, and the plates were agitated. Absorbances were measured at 570 nm using a multiwell plate reader (Model Anthos Labtec 2010 1.7 reader). The cell viability effects from exposure of cells to each agent alone and to their combination were analyzed by generating concentration-effect curves as a plot of the fraction of unaffected (surviving) cells versus drug concentration. Dose-response curves were plotted as percentages of the control cell absorbances, which were obtained from control wells treated with appropriate concentrations of vehicles that were processed simultaneously. For each treatment, cell viability was evaluated as a percentage using the following equation: (A570 of treated sample/A570 of untreated sample)×100. […] All statistical tests were two-sided. […]

[2] = test system: SK-Br3 cells; experiment: MTT cell viability / isobologram analysis, SK-Br3; assay type: cell-based, human
Procedure: as §1

[3] = test system: Mutant Her-2/neu promoter; experiment: Luciferase reporter driven by Her-2/neu promoter with mutated PEA3 binding site; assay type: cell-based, human; conditions: for Luciferase activity relative to vehicle-treated wild-type promoter cells: mutant promoter, GLA 10 μg/mL for 24 hours
Procedure: FIG. 11. Luciferase activity in transiently transfected cells. Luciferase activity was assayed in cells that were transiently transfected with a pGL2-Luc construct containing a luciferase reporter gene under the control of a Her-2/neu promoter fragment containing a wild-type (top panel, left) or mutant (top panel, right) PEA3 binding site as described herein. The magnitude of activation in Her-2/neu promoter-luciferase-transfected cells was determined after normalization of the luciferase activity obtained in cells co-transfected with equivalent amounts of the empty pGL2-Luciferase vector lacking the Her-2/neu promoter (-luciferase) and the internal control plasmid pRL-CMV. This control value was used to calculate the relative change in the transcriptional activities of Her-2/neu-promoter-luciferase-transfected cells in response to treatments after normalization to pRL-CMV. The activity of the wild-type promoter in untreated control cells was defined as 100%. […] One-factor ANOVA was used to analyzed differences in the percentages of luciferase activity between the various treatment groups.
The luciferase activities reported in Table 3 were assayed in cells that were transiently transfected with a pGL2-luciferase (Promega Inc., Madison, Wis.) construct containing a luciferase reporter gene under the control of a Her-2/neu promoter fragment containing a wild-type or mutant PEA3 binding site, as previously described by Xing et al. (36), incorporated herein by reference. Cells were transfected using FuGENE 6 transfection reagent (Roche Biochemicals, Indianapolis, Ind.) as directed by the manufacturer and were treated with vehicle (ethanol; EtOH) or γ-linolenic acid (10 μg/mL for 24 hours). Luciferase activity from cell extracts was detected with a Luciferase Assay System (Promega Inc.).
To examine whether the increased PEA3 levels might mediate the inhibition of Her-2/neu transcription in GLA-treated cells, the effect of GLA on transcription from a Her-2/neu promoter bearing a mutated PEA3 binding sequence, at −33 to −28, that is known to abolish PEA3 binding (36, incorporated herein by reference) was investigated. For this analysis we used the same luciferase reporter gene construct described above but containing the HER-2/neu promoter mutation at the PEA3 binding site (5′-GAG GAA-3′ at −33 to −28 changed to 5′-GAG CTC-3′).
To conduct Her-2/neu promoter activity assays, cells were initially transfected using FuGENE 6 transfection reagent (Roche Biochemicals, Indianapolis, Ind.) as directed by the manufacturer. Overnight-serum starved cancer cells seeded into 24-well plates (˜5×10^4 cells/well) were transfected in low-serum (0.1% FBS) media with 1.5 μg/well of the pGL2-luciferase (Promega, Madison, Wis.) construct containing a luciferase reporter gene driven by either an intact (Her-2/neu wild-type PEA3-binding site-luciferase) or by a mutated (Her-2/neu mutated PEA3-binding site-luciferase) Her-2/neu promoter fragment along with […] of the internal control plasmid pRL-CMV, which was used to correct for transfection efficiency. […] Approximately 24 hours after treatments, luciferase activities from cell extracts were detected with a luciferase Assay System following manufacturer's instructions (Promega, Madison, Wis., USA) using a Victor^2™ Multilabel Counter (Perkin-Elmer Life Sciences).

[4] = test system: Breast Cancer Cells; experiment: Effect of fatty acids, breast cancer cells (Table 2); assay type: cell-based; conditions: FAS named only for oleic acid
[5] = test system: SK-Br3 and BT-474 cells; experiment: Soft-agar colony-formation assay; assay type: cell-based, human
[6] = test system: Her-2/neu mRNA; experiment: Semiquantitative RT-PCR of Her-2/neu transcripts; assay type: cell-based, human
[7] = test system: SK-Br3 and BT-474 cells; experiment: Anchorage-dependent cell proliferation (Coulter Counter); assay type: cell-based, human; conditions: low concentrations of OA, increasing concentrations of trastuzumab, or combination, 6 days
Procedure: (A) Left panel: exponentially growing SK-Br3 and BT-474 cells were trypsinized and plated in 24-well plates at a density of 10,000 cells/well. Cells were incubated for 24 hours to allow for attachment and starved for serum overnight, after which a zero time point was determined. […] Cells were counted at days 0, 3 and 6 with a Coulter Counter. All assays were performed three times in triplicate. The data are presented as mean number of cells×10^4/well (columns)±SD (bars) after 6 days treatment. […] For each pair of columns, the height of the columns on the left represents the sum of the effect of each agent alone and, therefore, the expected percentage of cell growth inhibition if their effect was additive when used in combination. […] Colony formation (≧50 μm) was assessed using a colony counter. Each experimental value represents the mean colony number (columns)±SD (bars) from three separate experiments in which triplicate dishes were counted. […]
SK-Br3 and BT-474 cells exponentially growing in IMEM-5% FBS were trypsinized and re-plated in 24-well plates at a density of 10,000 cells/well. Cells were incubated for 24 hours to allow for attachment, after which a zero time point was determined. […] Cell number was determined at days 0, 3 and 6 with a Coulter Counter (Coulter Electronics, Inc., Hialeah, Fla.). […]

[8] = test system: phospho-MAPK and phospho-Ser^473 AKT; experiment: Western blot of phospho-MAPK and phospho-AKT; assay type: cell-based, human; conditions: BT-474; 48 hours; OA 5 μM, trastuzumab 10 μg/ml in combination
Text: Densitometric values of protein bands were quantified using Scion Imaging Software (Scion Corp., Frederick, Md.).

regulation of luciferase reporter driven by promoter with mutated PEA3 site ([3]; OA-supplemented SK-Br3, SK-OV3 and NCI-N87 cells)	Compound	increase in sensitivity to trastuzumab ([1]; concurrent 10 μg/ml GLA)	increase in sensitivity to trastuzumab ([2]; concurrent 10 μg/ml GLA) [fold]	Luciferase activity relative to vehicle-treated wild-type promoter cells ([3]; BT-474)	Luciferase activity relative to vehicle-treated wild-type promoter cells ([3]; MDA-MB-231)	Luciferase activity relative to vehicle-treated wild-type promoter cells ([3]; MDA-MB-453)	Luciferase activity relative to vehicle-treated wild-type promoter cells ([3]; NCI-N87)	Luciferase activity relative to vehicle-treated wild-type promoter cells ([3]; SK-Br3)	Luciferase activity relative to vehicle-treated wild-type promoter cells ([3]; SK-OV3)	Effect of Fatty Acids: Breast Cancer Cells [4]	anchorage-independent growth in soft agar, effect of GLA cotreatment ([5]; BT-474 and SK-Br3, GLA with suboptimal doses of trastuzumab)	transcription of the Her-2/neu gene (RT-PCR) ([6]; BT-474 and SK-Br3, GLA 5, 10, or 20 μg/ml for 48 hours)	sensitization factor (IC50 without OA / IC50 with OA) ([1]; 10 mM OA, sensitization to trastuzumab) [fold]	sensitization factor (IC50 without OA / IC50 with OA) ([2]; OA co-exposure, sensitization to trastuzumab) [fold]	anchorage-dependent cell growth [7]	anchorage-independent colony formation in soft agar ([5]; SK-Br3 and BT-474, OA, trastuzumab or co-exposure)	active MAPK and active AKT (phospho-MAPK, phospho-Ser^473 AKT) [8]	expression levels of Her-2/neu transcripts (RT-PCR) ([6]; OA-treated SK-Br3 cells)
	CCCCCC=CCC=CCC=CCCCCC(=O)O [GLA, 6,9,12-octadecatrienoic acid]	approximately 30 fold	~40	12% (95% CI = 9-15%)	61% (95% CI = 59-63%)	11% (95% CI = 3-19%)	19% (95% CI = 12-26%)	21% (95% CI = 18-24%)	14% (95% CI = 6-22%)	Potent Down-regulator	enhanced the growth-inhibitory effects	Strong, dose-dependent decreases						
not subject to negative regulation	CCCCCCCCC=CCCCCCCCC(=O)O [OA, 9-octadecenoic acid]									Down-regulates			40	27	no notable effects	slightly decreased	inhibited active MAPK and active AKT	significant reduction
